{"source": "ChEMBL document CHEMBL1201862", "about": "“PubChem BioAssay data set” (2004)", "test_in_all_cases": "DTP human tumour cell line panel, 48 h", "key": {"NCI-H522": {"system": "NCI-H522"}, "MOLT-4": {"system": "MOLT-4"}, "TK-10": {"system": "TK-10"}, "SK-MEL-5": {"system": "SK-MEL-5"}, "OVCAR-5": {"system": "OVCAR-5"}, "K562": {"system": "K562"}, "RPMI-8226": {"system": "RPMI-8226"}, "OVCAR-4": {"system": "OVCAR-4"}, "LXFL 529": {"system": "LXFL 529"}, "CAKI-1": {"system": "CAKI-1"}, "EKVX": {"system": "EKVX"}, "A498": {"system": "A498"}, "U-251": {"system": "U-251"}, "OVCAR-8": {"system": "OVCAR-8"}, "HOP-62": {"system": "HOP-62"}, "786-0": {"system": "786-0"}, "T47D": {"system": "T47D"}, "MDA-MB-231": {"system": "MDA-MB-231"}, "PC-3": {"system": "PC-3"}, "BT-549": {"system": "BT-549"}}, "note": "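All cell lines were grown in 96-well plates and treated with compound for 48 hours. Abbreviation: GI50, concentration required for 50% inhibition of growth.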 The source made the active and inactive calls. No stated cut-off is given here; in the data, active = GI50 up to about 1.1 µM and inactive = higher.", "data": [{"smiles": "COc1cc([C@@H]2c3cc4c(cc3[C@@H](NC(=O)c3cccc(C#N)c3)C3COC(=O)[C@@H]32)OCO4)cc(OC)c1O", "note": "(stereo not given in full)", "values": [{"measurement": "GI50", "setting": "NCI-H522", "value": "0.908 µM (active)"}, {"measurement": "GI50", "setting": "MOLT-4", "value": "15.1 µM (inactive)"}, {"measurement": "GI50", "setting": "TK-10", "value": "3.29 µM (inactive)"}, {"measurement": "GI50", "setting": "SK-MEL-5", "value": "0.815 µM (active)"}, {"measurement": "GI50", "setting": "OVCAR-5", "value": "1.1 µM (active)"}, {"measurement": "GI50", "setting": "K562", "value": "1.73 µM (inactive)"}, {"measurement": "GI50", "setting": "RPMI-8226", "value": "7.14 µM (inactive)"}, {"measurement": "GI50", "setting": "OVCAR-4", "value": "16.7 µM (inactive)"}, {"measurement": "GI50", "setting": "LXFL 529", "value": "5.93 µM (inactive)"}, {"measurement": "GI50", "setting": "CAKI-1", "value": "0.678 µM (active)"}, {"measurement": "GI50", "setting": "EKVX", "value": "1.36 µM (inactive)"}, {"measurement": "GI50", "setting": "A498", "value": "1.26 µM (inactive)"}, {"measurement": "GI50", "setting": "U-251", "value": "0.155 µM (active)"}, {"measurement": "GI50", "setting": "OVCAR-8", "value": "1.19 µM (inactive)"}, {"measurement": "GI50", "setting": "HOP-62", "value": "0.172 µM (active)"}, {"measurement": "GI50", "setting": "786-0", "value": "0.703 µM (active)"}]}, {"smiles": "CC1=Nc2ccccc2SC(c2c(Cl)cccc2Cl)C1", "note": "(stereo not given)", "values": [{"measurement": "GI50", "setting": "NCI-H522", "value": "1.22 µM (inactive)"}, {"measurement": "GI50", "setting": "MOLT-4", "value": "0.49 µM (active)"}, {"measurement": "GI50", "setting": "TK-10", "value": "2.22 µM (inactive)"}, {"measurement": "GI50", "setting": "SK-MEL-5", "value": "1.49 µM (inactive)"}, {"measurement": "GI50", "setting": "OVCAR-5", "value": "2.39 µM (inactive)"}, {"measurement": "GI50", "setting": "K562", "value": "0.327 µM (active)"}, {"measurement": "GI50", "setting": "RPMI-8226", "value": "0.314 µM (active)"}, {"measurement": "GI50", "setting": "OVCAR-4", "value": "1.98 µM (inactive)"}, {"measurement": "GI50", "setting": "LXFL 529", "value": "0.5 µM (active)"}, {"measurement": "GI50", "setting": "CAKI-1", "value": "2.1 µM (inactive)"}, {"measurement": "GI50", "setting": "EKVX", "value": "2.12 µM (inactive)"}, {"measurement": "GI50", "setting": "A498", "value": "2.12 µM (inactive)"}, {"measurement": "GI50", "setting": "U-251", "value": "0.345 µM (active)"}, {"measurement": "GI50", "setting": "OVCAR-8", "value": "0.229 µM (active)"}, {"measurement": "GI50", "setting": "HOP-62", "value": "2.15 µM (inactive)"}, {"measurement": "GI50", "setting": "786-0", "value": "0.454 µM (active)"}]}, {"smiles": "CC(C)N(C(=O)C12CC3CC(CC(C3)C1)C2)C(C)C", "values": [{"measurement": "GI50", "setting": "NCI-H522", "value": "> 50 µM (inactive)"}, {"measurement": "GI50", "setting": "MOLT-4", "value": "> 50 µM (inactive)"}, {"measurement": "GI50", "setting": "TK-10", "value": "> 50 µM (inactive)"}, {"measurement": "GI50", "setting": "SK-MEL-5", "value": "> 50 µM (inactive)"}, {"measurement": "GI50", "setting": "OVCAR-5", "value": "> 50 µM (inactive)"}, {"measurement": "GI50", "setting": "K562", "value": "> 50 µM (inactive)"}, {"measurement": "GI50", "setting": "RPMI-8226", "value": "> 50 µM (inactive)"}, {"measurement": "GI50", "setting": "OVCAR-4", "value": "> 50 µM (inactive)"}, {"measurement": "GI50", "setting": "LXFL 529", "value": "> 50 µM (inactive)"}, {"measurement": "GI50", "setting": "CAKI-1", "value": "> 50 µM (inactive)"}, {"measurement": "GI50", "setting": "EKVX", "value": "> 50 µM (inactive)"}, {"measurement": "GI50", "setting": "A498", "value": "> 50 µM (inactive)"}, {"measurement": "GI50", "setting": "U-251", "value": "> 50 µM (inactive)"}, {"measurement": "GI50", "setting": "OVCAR-8", "value": "> 50 µM (inactive)"}, {"measurement": "GI50", "setting": "HOP-62", "value": "> 50 µM (inactive)"}, {"measurement": "GI50", "setting": "786-0", "value": "> 50 µM (inactive)"}]}, {"smiles": "CN(C)C(=S)/N=c1\\ssc(=S)n1Cc1ccccc1", "values": [{"measurement": "GI50", "setting": "NCI-H522", "value": "0.063 µM (active)"}, {"measurement": "GI50", "setting": "MOLT-4", "value": "0.569 µM (active)"}, {"measurement": "GI50", "setting": "TK-10", "value": "1.45 µM (inactive)"}, {"measurement": "GI50", "setting": "SK-MEL-5", "value": "0.217 µM (active)"}, {"measurement": "GI50", "setting": "OVCAR-5", "value": "20 µM (inactive)"}, {"measurement": "GI50", "setting": "T47D", "value": "6.31 µM (inactive)"}, {"measurement": "GI50", "setting": "K562", "value": "0.206 µM (active)"}, {"measurement": "GI50", "setting": "RPMI-8226", "value": "0.785 µM (active)"}, {"measurement": "GI50", "setting": "OVCAR-4", "value": "3.42 µM (inactive)"}, {"measurement": "GI50", "setting": "MDA-MB-231", "value": "0.631 µM (active)"}, {"measurement": "GI50", "setting": "LXFL 529", "value": "0.459 µM (active)"}, {"measurement": "GI50", "setting": "CAKI-1", "value": "0.676 µM (active)"}, {"measurement": "GI50", "setting": "PC-3", "value": "0.249 µM (active)"}, {"measurement": "GI50", "setting": "EKVX", "value": "2.15 µM (inactive)"}, {"measurement": "GI50", "setting": "A498", "value": "0.51 µM (active)"}, {"measurement": "GI50", "setting": "U-251", "value": "0.419 µM (active)"}, {"measurement": "GI50", "setting": "OVCAR-8", "value": "0.51 µM (active)"}, {"measurement": "GI50", "setting": "HOP-62", "value": "0.546 µM (active)"}, {"measurement": "GI50", "setting": "786-0", "value": "0.361 µM (active)"}, {"measurement": "GI50", "setting": "BT-549", "value": "> 100 µM (inactive)"}]}, {"smiles": "Cc1ccc(CC(C)N)cc1", "note": "(stereo not given)", "values": [{"measurement": "GI50", "setting": "NCI-H522", "value": "> 100 µM (inactive)"}, {"measurement": "GI50", "setting": "MOLT-4", "value": "> 100 µM (inactive)"}, {"measurement": "GI50", "setting": "TK-10", "value": "> 100 µM (inactive)"}, {"measurement": "GI50", "setting": "SK-MEL-5", "value": "> 100 µM (inactive)"}, {"measurement": "GI50", "setting": "OVCAR-5", "value": "> 100 µM (inactive)"}, {"measurement": "GI50", "setting": "K562", "value": "> 100 µM (inactive)"}, {"measurement": "GI50", "setting": "RPMI-8226", "value": "> 100 µM (inactive)"}, {"measurement": "GI50", "setting": "OVCAR-4", "value": "> 100 µM (inactive)"}, {"measurement": "GI50", "setting": "LXFL 529", "value": "> 100 µM (inactive)"}, {"measurement": "GI50", "setting": "CAKI-1", "value": "> 100 µM (inactive)"}, {"measurement": "GI50", "setting": "EKVX", "value": "> 100 µM (inactive)"}, {"measurement": "GI50", "setting": "A498", "value": "> 100 µM (inactive)"}, {"measurement": "GI50", "setting": "U-251", "value": "> 100 µM (inactive)"}, {"measurement": "GI50", "setting": "OVCAR-8", "value": "> 100 µM (inactive)"}, {"measurement": "GI50", "setting": "HOP-62", "value": "> 100 µM (inactive)"}, {"measurement": "GI50", "setting": "786-0", "value": "> 100 µM (inactive)"}]}, {"smiles": "CC(C)(c1ccc(Oc2ccc(C#N)c(C#N)c2)cc1)c1ccc(Oc2ccc(C#N)c(C#N)c2)cc1", "values": [{"measurement": "GI50", "setting": "NCI-H522", "value": "> 10 µM (inactive)"}, {"measurement": "GI50", "setting": "MOLT-4", "value": "> 10 µM (inactive)"}, {"measurement": "GI50", "setting": "TK-10", "value": "> 10 µM (inactive)"}, {"measurement": "GI50", "setting": "SK-MEL-5", "value": "> 10 µM (inactive)"}, {"measurement": "GI50", "setting": "OVCAR-5", "value": "> 10 µM (inactive)"}, {"measurement": "GI50", "setting": "K562", "value": "> 10 µM (inactive)"}, {"measurement": "GI50", "setting": "RPMI-8226", "value": "> 10 µM (inactive)"}, {"measurement": "GI50", "setting": "OVCAR-4", "value": "> 10 µM (inactive)"}, {"measurement": "GI50", "setting": "LXFL 529", "value": "> 10 µM (inactive)"}, {"measurement": "GI50", "setting": "CAKI-1", "value": "> 10 µM (inactive)"}, {"measurement": "GI50", "setting": "EKVX", "value": "> 10 µM (inactive)"}, {"measurement": "GI50", "setting": "A498", "value": "> 10 µM (inactive)"}, {"measurement": "GI50", "setting": "U-251", "value": "> 10 µM (inactive)"}, {"measurement": "GI50", "setting": "OVCAR-8", "value": "> 10 µM (inactive)"}, {"measurement": "GI50", "setting": "HOP-62", "value": "> 10 µM (inactive)"}, {"measurement": "GI50", "setting": "786-0", "value": "> 10 µM (inactive)"}]}]}
